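Following 48 hours of exposure in 96-well plates, responses at five concentrations were used to interpolate endpoints linearly. TGI: total growth inhibition.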
Columns and labels:
Experiment in all cases: DTP human tumour cell line panel, 48 h
MOLT-4 leukemia = system: MOLT-4 leukemia
HOP-92 NSCLC = system: HOP-92 NSCLC
T-47D breast = system: T-47D breast
OVCAR-4 ovarian = system: OVCAR-4 ovarian
SR leukemia = system: SR leukemia
MALME-3M melanoma = system: MALME-3M melanoma
SW-620 colon = system: SW-620 colon
786-0 renal = system: 786-0 renal
SK-OV-3 ovarian = system: SK-OV-3 ovarian
M14 melanoma = system: M14 melanoma
CCRF-CEM leukemia = system: CCRF-CEM leukemia
SN12C renal = system: SN12C renal
HCT-15 colon = system: HCT-15 colon
DU-145 prostate = system: DU-145 prostate
RXF 393 renal = system: RXF 393 renal
OVCAR-3 ovarian = system: OVCAR-3 ovarian
SNB-75 CNS = system: SNB-75 CNS
EKVX NSCLC = system: EKVX NSCLC
SK-MEL-28 melanoma = system: SK-MEL-28 melanoma
PC-3 prostate = system: PC-3 prostate
NCI-H522 lung = system: NCI-H522 lung
HOP-62 NSCLC = system: HOP-62 NSCLC
A549 NSCLC = system: A549 NSCLC
BT-549 breast = system: BT-549 breast
NCI-H23 lung = system: NCI-H23 lung
HL-60(TB) leukemia = system: HL-60(TB) leukemia
IGROV1 ovarian = system: IGROV1 ovarian
UACC-62 melanoma = system: UACC-62 melanoma
SF-295 CNS = system: SF-295 CNS
K-562 leukemia = system: K-562 leukemia
HCC-2998 colon = system: HCC-2998 colon
TK-10 renal = system: TK-10 renal
CAKI-1 renal = system: CAKI-1 renal
MDA-N = system: MDA-N
MDA-MB-231 breast = system: MDA-MB-231 breast
SK-MEL-5 melanoma = system: SK-MEL-5 melanoma
MCF7 breast = system: MCF7 breast
KM12 colon = system: KM12 colon
RPMI-8226 leukemia = system: RPMI-8226 leukemia
HT29 colon = system: HT29 colon
OVCAR-8 ovarian = system: OVCAR-8 ovarian
MDA-MB-435 = system: MDA-MB-435
UACC-257 melanoma = system: UACC-257 melanoma
COLO 205 colon = system: COLO 205 colon
SF-268 CNS = system: SF-268 CNS
NCI-H226 lung = system: NCI-H226 lung
HS 578T breast = system: HS 578T breast
NCI-H460 lung = system: NCI-H460 lung
HCT-116 colon = system: HCT-116 colon
A498 renal = system: A498 renal
LOX IMVI melanoma = system: LOX IMVI melanoma
UO-31 renal = system: UO-31 renal
SK-MEL-2 melanoma = system: SK-MEL-2 melanoma
SF-539 CNS = system: SF-539 CNS
ACHN renal = system: ACHN renal
U251 CNS = system: U251 CNS
SNB-19 CNS = system: SNB-19 CNS
OVCAR-5 ovarian = system: OVCAR-5 ovarian

In the case of `COC(=O)c1ccc(CN2CCc3c([nH]c4ccccc34)C2CO)o1` (stereo not given), the TGI (MOLT-4 leukemia) is reported as over 10 µM, the TGI (HOP-92 NSCLC) is reported as over 10 µM and the TGI (T-47D breast) is reported as over 10 µM. It also gave a TGI (OVCAR-4 ovarian) of over 10 µM, a TGI (SR leukemia) of over 10 µM and a TGI (MALME-3M melanoma) of over 10 µM. For the same compound, the TGI (SW-620 colon) was over 10 µM, the TGI (786-0 renal) was over 10 µM and the TGI (SK-OV-3 ovarian) was over 10 µM. It also gave a TGI (M14 melanoma) of over 10 µM, a TGI (CCRF-CEM leukemia) of over 10 µM and a TGI (SN12C renal) of over 10 µM. The TGI (HCT-15 colon) was over 10 µM, the TGI (DU-145 prostate) was over 10 µM and the TGI (RXF 393 renal) was over 10 µM. It also gave a TGI (OVCAR-3 ovarian) of over 10 µM, a TGI (SNB-75 CNS) of over 10 µM and a TGI (EKVX NSCLC) of over 10 µM. It also gave a TGI (SK-MEL-28 melanoma) of over 10 µM, a TGI (PC-3 prostate) of over 10 µM and a TGI (NCI-H522 lung) of over 10 µM. For the same compound, the TGI (HOP-62 NSCLC) was over 10 µM, the TGI (A549 NSCLC) was over 10 µM and the TGI (BT-549 breast) was over 10 µM. For the same compound, the TGI (NCI-H23 lung) was over 10 µM, the TGI (HL-60(TB) leukemia) was over 10 µM and the TGI (IGROV1 ovarian) was over 10 µM. For the same compound, the TGI (UACC-62 melanoma) was over 10 µM, the TGI (SF-295 CNS) was over 10 µM and the TGI (K-562 leukemia) was over 10 µM. It also gave a TGI (HCC-2998 colon) of over 10 µM, a TGI (TK-10 renal) of over 10 µM and a TGI (CAKI-1 renal) of over 10 µM. The TGI (MDA-N) was over 10 µM, the TGI (MDA-MB-231 breast) was over 10 µM and the TGI (SK-MEL-5 melanoma) was over 10 µM. For the same compound, the TGI (MCF7 breast) was over 10 µM, the TGI (KM12 colon) was over 10 µM and the TGI (RPMI-8226 leukemia) was over 10 µM. It also gave a TGI (HT29 colon) of over 10 µM, a TGI (OVCAR-8 ovarian) of over 10 µM and a TGI (MDA-MB-435) of over 10 µM. It also gave a TGI (UACC-257 melanoma) of over 10 µM, a TGI (COLO 205 colon) of over 10 µM and a TGI (SF-268 CNS) of over 10 µM.

`Cc1ncc([N+](=O)[O-])n1CCN(C)CCCCn1ccnc1[N+](=O)[O-]` gave a TGI (MOLT-4 leukemia) of over 100 µM, a TGI (T-47D breast) of over 100 µM and a TGI (OVCAR-4 ovarian) of over 100 µM. It also gave a TGI (NCI-H226 lung) of over 100 µM, a TGI (SR leukemia) of over 100 µM and a TGI (MALME-3M melanoma) of over 100 µM. It also gave a TGI (SW-620 colon) of over 100 µM, a TGI (HS 578T breast) of over 100 µM and a TGI (786-0 renal) of over 100 µM. For the same compound, the TGI (SK-OV-3 ovarian) was over 100 µM, the TGI (M14 melanoma) was over 100 µM and the TGI (CCRF-CEM leukemia) was over 100 µM. The TGI (SN12C renal) was over 100 µM, the TGI (NCI-H460 lung) was over 100 µM and the TGI (HCT-15 colon) was over 100 µM. The TGI (DU-145 prostate) was over 100 µM, the TGI (RXF 393 renal) was over 100 µM and the TGI (OVCAR-3 ovarian) was over 100 µM. It also gave a TGI (SNB-75 CNS) of over 100 µM, a TGI (EKVX NSCLC) of over 100 µM and a TGI (SK-MEL-28 melanoma) of over 100 µM. The TGI (HCT-116 colon) was over 100 µM, the TGI (PC-3 prostate) was over 100 µM and the TGI (A498 renal) was over 100 µM. It also gave a TGI (LOX IMVI melanoma) of over 100 µM, a TGI (UO-31 renal) of over 100 µM and a TGI (HOP-62 NSCLC) of over 100 µM. It also gave a TGI (SK-MEL-2 melanoma) of over 100 µM, a TGI (A549 NSCLC) of over 100 µM and a TGI (SF-539 CNS) of over 100 µM. The TGI (BT-549 breast) was over 100 µM, the TGI (NCI-H23 lung) was over 100 µM and the TGI (HL-60(TB) leukemia) was over 100 µM. The TGI (UACC-62 melanoma) was over 100 µM, the TGI (SF-295 CNS) was over 100 µM and the TGI (K-562 leukemia) was over 100 µM. The TGI (HCC-2998 colon) was over 100 µM, the TGI (TK-10 renal) was over 100 µM and the TGI (CAKI-1 renal) was over 100 µM. The TGI (MDA-N) was over 100 µM, the TGI (ACHN renal) was over 100 µM and the TGI (MDA-MB-231 breast) was over 100 µM. It also gave a TGI (SK-MEL-5 melanoma) of over 100 µM, a TGI (MCF7 breast) of over 100 µM and a TGI (U251 CNS) of over 100 µM. For the same compound, the TGI (KM12 colon) was over 100 µM, the TGI (RPMI-8226 leukemia) was over 100 µM and the TGI (HT29 colon) was over 100 µM. For the same compound, the TGI (SNB-19 CNS) was over 100 µM, the TGI (OVCAR-8 ovarian) was over 100 µM and the TGI (MDA-MB-435) was over 100 µM. For the same compound, the TGI (UACC-257 melanoma) was over 100 µM, the TGI (COLO 205 colon) was over 100 µM and the TGI (SF-268 CNS) was over 100 µM. The TGI (OVCAR-5 ovarian) was over 100 µM.
